According to PubChem BioAssay AID1259407 (Chemical Carcinogenesis Research Information System (CCRIS), 2018):
The source made the active and inactive calls. No rule for the calls is given here.

Test system: CCRIS mutagenicity, Ames/micronucleus/aberration tests
Assay: CCRIS mutagenicity studies
[1] = Test System: AMES SALMONELLA TYPHIMURIUM, Strain/Indicator: TA98, Metabolic Activation: NONE, Method: PREINCUBATION
[2] = Test System: AMES SALMONELLA TYPHIMURIUM, Strain/Indicator: TA100, Metabolic Activation: NONE, Method: PREINCUBATION
[3] = Test System: AMES SALMONELLA TYPHIMURIUM, Strain/Indicator: TA1535, Metabolic Activation: NONE, Method: PREINCUBATION
[4] = Test System: AMES SALMONELLA TYPHIMURIUM, Strain/Indicator: TA1537, Metabolic Activation: NONE, Method: PREINCUBATION
[5] = Test System: AMES SALMONELLA TYPHIMURIUM, Strain/Indicator: TA100, Metabolic Activation: NONE, Method: STANDARD PLATE
[6] = Test System: AMES SALMONELLA TYPHIMURIUM, Strain/Indicator: TA100, Metabolic Activation: RAT, LIVER, S-9, AROCLOR 1254, Method: STANDARD PLATE
[7] = Test System: AMES SALMONELLA TYPHIMURIUM, Strain/Indicator: TA1535, Metabolic Activation: NONE, Method: STANDARD PLATE

Compound: CC(Cl)CCCC(Cl)CCCC(Cl)CCCC(Cl)CCCC(Cl)CCCC(Cl)CCCl (configuration not stated)
- mutagenic call (End Point: IN VITRO CHROMOSOMAL ABERRATIONS, Test System: CHO CELLS, Metabolic Activation: NONE): active; positive; oily droplets formed at all doses
- mutagenic call (End Point: IN VITRO CHROMOSOMAL ABERRATIONS, Test System: CHO CELLS, Metabolic Activation: RAT, LIVER, S-9, AROCLOR 1254): inactive; negative; oily droplets formed at all doses
- mutagenic call (Test System: AMES SALMONELLA TYPHIMURIUM, Strain/Indicator: TA98, Metabolic Activation: HAMSTER, LIVER, S-9, AROCLOR 1254, Method: PREINCUBATION): inactive; negative
- mutagenic call [1]: inactive; negative
- mutagenic call (Test System: AMES SALMONELLA TYPHIMURIUM, Strain/Indicator: TA98, Metabolic Activation: RAT, LIVER, S-9, AROCLOR 1254, Method: PREINCUBATION): inactive; negative
- mutagenic call (Test System: AMES SALMONELLA TYPHIMURIUM, Strain/Indicator: TA100, Metabolic Activation: HAMSTER, LIVER, S-9, AROCLOR 1254, Method: PREINCUBATION): inactive; negative
- mutagenic call [2]: inactive; negative
- mutagenic call (Test System: AMES SALMONELLA TYPHIMURIUM, Strain/Indicator: TA100, Metabolic Activation: RAT, LIVER, S-9, AROCLOR 1254, Method: PREINCUBATION): inactive; negative
- mutagenic call (Test System: AMES SALMONELLA TYPHIMURIUM, Strain/Indicator: TA1535, Metabolic Activation: HAMSTER, LIVER, S-9, AROCLOR 1254, Method: PREINCUBATION): inactive; negative
- mutagenic call [3]: inactive; negative
- mutagenic call (Test System: AMES SALMONELLA TYPHIMURIUM, Strain/Indicator: TA1535, Metabolic Activation: RAT, LIVER, S-9, AROCLOR 1254, Method: PREINCUBATION): inactive; negative
- mutagenic call (Test System: AMES SALMONELLA TYPHIMURIUM, Strain/Indicator: TA1537, Metabolic Activation: HAMSTER, LIVER, S-9, AROCLOR 1254, Method: PREINCUBATION): inactive; negative
- mutagenic call [4]: inactive; negative
- mutagenic call (Test System: AMES SALMONELLA TYPHIMURIUM, Strain/Indicator: TA1537, Metabolic Activation: RAT, LIVER, S-9, AROCLOR 1254, Method: PREINCUBATION): inactive; negative

Compound: C=C(C)C(=O)OCCCCC
- mutagenic call (Test System: AMES SALMONELLA TYPHIMURIUM, Strain/Indicator: TA98, Metabolic Activation: NONE, Method: STANDARD PLATE): inactive; negative
- mutagenic call (Test System: AMES SALMONELLA TYPHIMURIUM, Strain/Indicator: TA98, Metabolic Activation: RAT, LIVER, S-9, AROCLOR 1254, Method: STANDARD PLATE): inactive; negative
- mutagenic call (Test System: AMES SALMONELLA TYPHIMURIUM, Strain/Indicator: TA98, Metabolic Activation: RAT, LIVER, S-9, SODIUM PHENOBARBITAL, Method: STANDARD PLATE): inactive; negative
- mutagenic call [5]: inactive; negative
- mutagenic call [6]: inactive; negative
- mutagenic call (Test System: AMES SALMONELLA TYPHIMURIUM, Strain/Indicator: TA100, Metabolic Activation: RAT, LIVER, S-9, SODIUM PHENOBARBITAL, Method: STANDARD PLATE): inactive; negative
- mutagenic call [7]: inactive; negative
- mutagenic call (Test System: AMES SALMONELLA TYPHIMURIUM, Strain/Indicator: TA1535, Metabolic Activation: RAT, LIVER, S-9, AROCLOR 1254, Method: STANDARD PLATE): inactive; negative
- mutagenic call (Test System: AMES SALMONELLA TYPHIMURIUM, Strain/Indicator: TA1535, Metabolic Activation: RAT, LIVER, S-9, SODIUM PHENOBARBITAL, Method: STANDARD PLATE): inactive; negative
- mutagenic call (Test System: AMES SALMONELLA TYPHIMURIUM, Strain/Indicator: TA1537, Metabolic Activation: NONE, Method: STANDARD PLATE): inactive; negative
- mutagenic call (Test System: AMES SALMONELLA TYPHIMURIUM, Strain/Indicator: TA1537, Metabolic Activation: RAT, LIVER, S-9, AROCLOR 1254, Method: STANDARD PLATE): inactive; negative
- mutagenic call (Test System: AMES SALMONELLA TYPHIMURIUM, Strain/Indicator: TA1537, Metabolic Activation: RAT, LIVER, S-9, SODIUM PHENOBARBITAL, Method: STANDARD PLATE): inactive; negative
- mutagenic call (Test System: AMES SALMONELLA TYPHIMURIUM, Strain/Indicator: TA1538, Metabolic Activation: NONE, Method: STANDARD PLATE): inactive; negative
- mutagenic call (Test System: AMES SALMONELLA TYPHIMURIUM, Strain/Indicator: TA1538, Metabolic Activation: RAT, LIVER, S-9, AROCLOR 1254, Method: STANDARD PLATE): inactive; negative
- mutagenic call (Test System: AMES SALMONELLA TYPHIMURIUM, Strain/Indicator: TA1538, Metabolic Activation: RAT, LIVER, S-9, SODIUM PHENOBARBITAL, Method: STANDARD PLATE): inactive; negative

Compound: CCCCCCCCOP(=O)(OCCCCCCCC)OCCCCCCCC
- mutagenic call (Test System: AMES SALMONELLA TYPHIMURIUM, Strain/Indicator: TA98, Metabolic Activation: HAMSTER, LIVER, S-9, AROCLOR 1254 (10%), Method: PREINCUBATION): inactive; negative
- mutagenic call [1]: inactive; negative
- mutagenic call (Test System: AMES SALMONELLA TYPHIMURIUM, Strain/Indicator: TA98, Metabolic Activation: RAT, LIVER, S-9, AROCLOR 1254 (10%), Method: PREINCUBATION): inactive; negative
- mutagenic call (Test System: AMES SALMONELLA TYPHIMURIUM, Strain/Indicator: TA100, Metabolic Activation: HAMSTER, LIVER, S-9, AROCLOR 1254 (10%), Method: PREINCUBATION): inactive; negative
- mutagenic call [2]: inactive; negative
- mutagenic call (Test System: AMES SALMONELLA TYPHIMURIUM, Strain/Indicator: TA100, Metabolic Activation: RAT, LIVER, S-9, AROCLOR 1254 (10%), Method: PREINCUBATION): inactive; negative
- mutagenic call (Test System: AMES SALMONELLA TYPHIMURIUM, Strain/Indicator: TA1535, Metabolic Activation: HAMSTER, LIVER, S-9, AROCLOR 1254 (10%), Method: PREINCUBATION): inactive; negative
- mutagenic call [3]: inactive; negative
- mutagenic call (Test System: AMES SALMONELLA TYPHIMURIUM, Strain/Indicator: TA1535, Metabolic Activation: RAT, LIVER, S-9, AROCLOR 1254 (10%), Method: PREINCUBATION): inactive; negative
- mutagenic call (Test System: AMES SALMONELLA TYPHIMURIUM, Strain/Indicator: TA1537, Metabolic Activation: HAMSTER, LIVER, S-9, AROCLOR 1254 (10%), Method: PREINCUBATION): inactive; negative
- mutagenic call [4]: inactive; negative
- mutagenic call (Test System: AMES SALMONELLA TYPHIMURIUM, Strain/Indicator: TA1537, Metabolic Activation: RAT, LIVER, S-9, AROCLOR 1254 (10%), Method: PREINCUBATION): inactive; negative

Compound: COc1cc2c(cc1O)CC1c3c(cc(OC)c(O)c3-2)CC[N+]1(C)C (configuration not stated)
- mutagenic call (Test System: AMES SALMONELLA TYPHIMURIUM, Strain/Indicator: TA100, Metabolic Activation: RAT, LIVER, S-9, PHENOBARBITAL AND BETA-NAPHTHOFLAVONE, Method: PREINCUBATION): inactive; negative

Compound: COc1cc2c(c3oc(=O)c4c(c13)[C@@H](O)CC4=O)[C@@H]1C=CO[C@@H]1O2
- mutagenic call (Test System: AMES SALMONELLA TYPHIMURIUM, Strain/Indicator: TA98, Metabolic Activation: HUMAN, LIVER, S-9, Method: STANDARD PLATE): inactive; negative
- mutagenic call (Test System: AMES SALMONELLA TYPHIMURIUM, Strain/Indicator: TA100, Metabolic Activation: HUMAN, LIVER, S-9, Method: STANDARD PLATE): inactive; negative
- mutagenic call [5]: active; positive
- mutagenic call [6]: active; positive

Compound: CCN1CCN=N1
- mutagenic call [7]: active; positive
